Data published in patent US11827628B2, “Compositions and methods for inhibition of the JAK pathway” (Rigel Pharmaceuticals, Inc., priority 2005, dated 2023).
Structures can show the parent of a compound that is named as a salt.

system: IL-4 stimulated expression of CD23 in human Ramos B cells (JAK-1 and JAK-3); assay: Assay for Ramos B-Cell Line Stimulated with IL-4 (CD23 upregulation, FACS); assay type: cell-based; details: Homo sapiens, Ramos, Ramos B cells stimulated with IL-4, CD23 expression by FACS; read-out: IC50, Example 41
Text: One means of assaying for such inhibition is detection of the effect of the 2,4-substituted pyrimidinediamine compounds on the upregulation of downstream gene products. In the Ramos/IL4 assay, B-cells are stimulated with the cytokine Interleukin-4 (IL-4) leading to the activation of the JAK/Stat pathway through phosphorylation of the JAK family kinases, JAK1 and JAK3, which in turn phosphorylate and activate the transcription factor Stat-6. […] To study the effect of inhibitors (e.g., the 2,4-substituted pyrimindinediamine compounds described herein) on the JAK1 and JAK3 kinases, human Ramos B cells are stimulated with human IL-4. Twenty to 24 hours post stimulation, cells are stained for upregulation of CD23 and analyzed using flow cytometry (FACS). […] An exemplary assay of this type is described in greater detail in Example 41
B-cells stimulated with cytokine Interleukin-4 (IL-4) activate the JAK/Stat pathway through phosphorylation of the JAK family kinases, JAK-1 and JAK-3, which in turn phosphorylate and activate the transcription factor Stat-6. […] To study the effect of inhibitors on the JAK family kinases, human Ramos B cells are stimulated with human IL-4.
The Ramos B-cell line was acquired from ATCC (ATCC Catalog No. CRL-1596). The cells were cultured in RPMI 1640 (Cellgro, MediaTech, Inc., Herndon, VA, Cat No. 10-040-CM) with 10% fetal bovine serum (FBS), heat inactivated (JRH Biosciences, Inc, Lenexa, Kansas, Cat No. 12106-500M) according to ATCC propagation protocol. Cells were maintained at a density of 3.5×10^5. The day before the experiment, Ramos B-cells were diluted to 3.5×10^5 cells/mL to ensure that they were in a logarithmic growth phase.
Cells were spun down and suspended in RPMI with 5% serum. 5×10^4 cells were used per point in a 96-well tissue culture plate. Cells were pre-incubated with compound or DMSO (Sigma-Aldrich, St. Louis, MO, Cat No. D2650) vehicle control for 1 hour in a 37° C. incubator. Cells were then stimulated with IL-4 (Peprotech Inc., Rocky Hill, NJ, Cat No. 200-04) for a final concentration of 50 units/mL for 20-24 hours. Cells were then spun down and stained with anti-CD23-PE(BD Pharmingen, San Diego, CA, Cat No. 555711) and analyzed by FACS. Detection was performed using a BD LSR I System Flow Cytometer, purchased from Becton Dickinson Biosciences of San Jose, California The IC50 calculated based on the results of this assay are provided in TABLE XII.

| IC50 [nM] | SMILES |
| --- | --- |
| 1300 | CCNC(=O)NCc1ccc(Nc2nc(Nc3ccc(S(N)(=O)=O)cc3)ncc2F)cc1 [III-119, N2-(4-Aminosulfonylphenyl)-N4-(4-ethylaminocarbonylaminomethylphenyl]-5-fluoro-2,4-pyrimidinediamine] |
| 6090 | Cc1ccc(Nc2ncc(F)c(Nc3ccc4nc(O)cc(C)c4c3)n2)cc1S(N)(=O)=O [VII-73, N2-(3-Aminosulfonyl-4-methylphenyl)-5-fluoro-N4-(2-hydroxy-4-methylquinolin-6-yl)-2,4-pyrimidinediamine] |
| 240 | CNS(=O)(=O)c1ccc(Nc2ncc(F)c(Nc3cc(OC)cc(OC)c3)n2)cc1OC [IX-51, N4-(3,5-Dimethoxyphenyl)-5-fluoro-N2-[4-(N-methyl)aminosulfonyl-3-methoxyphenyl]-2,4-pyrimidinediamine] |
| 28.1 | CNS(=O)(=O)c1ccc(Nc2ncc(F)c(Nc3ccc4c(c3)NC(=O)C(C)(C)O4)n2)cc1OC [VII-37, N4-(2,2-Dimethyl-3-oxo-4H-benz[1,4]oxazin-6-yl)-5-fluoro-N2-[4-(N-methyl)aminosulfonyl-3-methoxyphenyl]-2,4-pyrimidinediamine] |
| 6650 | COC(=O)[C@@H]1C[C@@H](Nc2nc(Nc3ccc(C)c(S(N)(=O)=O)c3)ncc2F)CN1C(=O)CC#N [VII-1, N2-(3-Aminosulfonyl-4-methylphenyl)-N4-[(2S,4R)-1-(2-cyanoacetyl)-2-methoxycarbonylpyrrolidin-4-yl]-5-fluoro-2,4-pyrimidinediamine] |
| 3070 | Cc1ccc2cccc(Nc3nc(Nc4cccc(S(N)(=O)=O)c4)ncc3F)c2n1 [VII-81, N2-(3-Aminosulfonylphenyl)-5-fluoro-N4-(2-methylquinolin-8-yl)-2,4-pyrimidinediamine] |

same assay, conditions: Homo sapiens, Ramos, Ramos B-cell line stimulated with IL-4; CD23 expression by FACS; read-out: IC50, Example 41

| IC50 [nM] | SMILES |
| --- | --- |
| 1010 | CNC(=O)COc1ccc(Nc2nc(Nc3cccc(S(N)(=O)=O)c3)ncc2F)cc1 [Compound I-144, N2-(3-Aminosulfonylphenyl)-5-fluoro-N4-(4-methylaminocarbonylmethoxyphenyl)-2,4-pyrimidinediamine] |
| 866 | NS(=O)(=O)c1ccc(Nc2ncc(F)c(Nc3ccc(OCC(=O)N4CCOCC4)cc3)n2)cc1 [Compound I-210, N2-(4-Aminosulfonylphenyl)-5-fluoro-N4-[4-(2-morpholin-4-yl-2-oxo-ethoxy)phenyl]-2,4-pyrimidinediamine] |
| 1170 | COc1cc(Nc2nc(Nc3ccc(C)c(S(N)(=O)=O)c3)ncc2F)ccc1OCC(N)=O [Compound I-105, N4-(4-Aminocarbonylmethoxy-3-methoxyphenyl)-N2-(3-aminosulfonyl-4-methylphenyl)-5-fluoro-2,4-pyrimidinediamine] |
| 1430 | C=CC(=O)NCc1ccc(Nc2nc(Nc3ccc(S(N)(=O)=O)cc3)ncc2F)cc1 [III-44, N4-(4-Acrylamidomethylphenyl)-N2-(4-aminosulfonylphenyl)-5-fluoro-2,4-pyrimidinediamine] |
| 1050 | NS(=O)(=O)c1cccc(Nc2ncc(F)c(Nc3ccc(OCC(=O)N4CCOCC4)cc3)n2)c1 [Compound I-211, N2-(3-Aminosulfonylphenyl)-5-fluoro-N4-[4-(2-morpholin-4-yl-2-oxo-ethoxy)phenyl]-2,4-pyrimidinediamine] |
| 1510 | NC(=O)COc1ccc(Nc2nc(Nc3cccc(S(N)(=O)=O)c3)ncc2F)cc1CO [Compound I-107, N4-(4-Aminocarbonylmethoxy-3-hydroxymethylphenyl]-N2-(3-aminosulfonylphenyl)-5-fluoro-2,4-pyrimidinediamine] |

same assay, conditions: Ramos B cells stimulated with IL-4, CD23 expression by FACS; read-out: IC50, Example 41

| IC50 [nM] | SMILES |
| --- | --- |
| 6310 | CNS(=O)(=O)c1cc(Nc2ncc(F)c(Nc3ccc(C(=O)N4CCN(C(C)=O)CC4)cc3)n2)ccc1C [IX-25, N4-[4-(1-Acetyl-4-piperizinyl)carbonylphenyl]-5-fluoro-N2-[3-(N-methylaminosulfony)-4-methylphenyl]-2,4-pyrimidinediamine] |
| 1650 | Cc1ccc(Nc2ncc(F)c(Nc3cccc(CNC(N)=O)c3)n2)cc1S(N)(=O)=O [III-115, N4-(3-aminocarbonylaminomethyl)phenyl-N2-(3-aminosulfonyl-4-methyl)phenyl-5-fluoro-2,4-pyrimidinediamine] |
| 1180 | Cc1ccc(Nc2ncc(F)c(Nc3ccc4c(c3)N(Cc3ccccn3)C(=O)CO4)n2)cc1S(N)(=O)=O [Compound V-2, N2-(3-Aminosulphonyl-4-methylphenyl)-5-fluoro-N4-[3-oxo-4-(2-pyridylmethy)-benz[1,4]oxazin-6-yl]-2,4-pyrimidinediamine] |
| 1400 | CNS(=O)(=O)c1cc(Nc2ncc(F)c(Nc3ccc(C(=O)N4CCN(S(C)(=O)=O)CC4)cc3)n2)ccc1C [IX-31, 5-Fluoro-N2-[3-(N-methylaminosulfony)-4-methylphenyl]-5-fluoro-N4-[4-(1-methanesulfonyl-4-piperizinyl)carbonylphenyl]-2,4-pyrimidinediamine] |
| 2280 | COC(=O)CNS(=O)(=O)c1cccc(Nc2ncc(F)c(Nc3ccc(Cl)c(Cl)c3)n2)c1 [VI-8, N4-(3,4-Dichlorophenyl)-5-fluoro-N2-[3-(N-methoxycarbonylmethylene)aminosulfonylphenyl]-2,4-pyrimidinediamine] |
| 2680 | NC(=O)NCc1cccc(Nc2nc(Nc3cccc(S(N)(=O)=O)c3)ncc2F)c1 [III-114, N4-(3-aminocarbonylaminomethyl)phenyl-N2-(3-aminosulfonyl)phenyl-5-fluoro-2,4-pyrimidinediamine] |

same assay, conditions: Ramos B cells stimulated with IL-4, CD23 expression by FACS; sodium salt; read-out: IC50, Example 41

| IC50 [nM] | SMILES |
| --- | --- |
| 1980 | CCC(=O)NS(=O)(=O)c1cc(Nc2ncc(F)c(Nc3ccc(CCC#N)c(C)c3)n2)ccc1C [VI-104, N4-[4-(2-Cyanoethyl)-3-methylphenyl]-5-fluoro-N2-(4-methyl-3-propionylaminosulfonylphenyl)-2,4-pyrimidinediamine Sodium Salt] |

same assay, conditions: Ramos B-cell line stimulated with IL-4; CD23 expression by FACS; read-out: IC50, Example 41

| SMILES | IC50 [nM] |
| --- | --- |
| CCN(CC)CCNS(=O)(=O)c1cccc(Nc2ncc(F)c(Nc3ccc(OCc4ccccn4)cc3)n2)c1 [Compound I-166, N2-[3-(2-N,N-Diethylaminoethyl)aminosulfonylphenyl)-5-fluoro-N4-[4-(2-pyridinyl)methyleneoxyphenyl]-2,4-pyrimidinediamine] | 616 |
| COC(=O)CNS(=O)(=O)c1cccc(Nc2ncc(F)c(Nc3ccc(OCc4cc(C)on4)cc3)n2)c1 [Compound I-215, 5-Fluoro-N2-[3-(N-methoxycarbonylmethylene)aminosulfonylphenyl]-N4-[4-(5-methylisoxazol-3-yl)methyleneoxyphenyl]-2,4-pyrimidinediamine] | 976 |
| COC(=O)CN(c1ccc(OCc2cc(C)on2)cc1)c1nc(Nc2ccc(C)c(S(N)(=O)=O)c2)ncc1F [Compound I-227, N2-(3-Aminosulfonyl-4-methylphenyl)-5-fluoro-N4-methoxycarbonylmethyl-N4-[4-(5-methylisoxazol-3-yl)methyleneoxyphenyl]-2,4-pyrimidinediamine] | 1480 |

Second part, the compound after the results:

| IC50 [nM] | SMILES |
| --- | --- |
| 1950 | CCN(CC)CCNS(=O)(=O)c1ccc(Nc2ncc(F)c(Nc3ccc(Cc4ccncc4)cc3)n2)cc1 [III-72, N2-[4-(2-N,N-Diethylaminoethyl)aminosulfonylphenyl)-5-fluoro-N4-[4-(4-pyridinylmethyl)phenyl]-2,4-pyrimidinediamine] |
| 178 | NC(=O)CCc1ccc(Nc2nc(Nc3ccc(S(N)(=O)=O)cc3)ncc2F)cc1 [III-49, N4-[4-(2-Aminocarboxylethylene)phenyl]-N2-(4-aminosulfonylphenyl)-5-fluoro-2,4-pyrimidinediamine] |
| 1010 | NS(=O)(=O)c1ccc(Nc2ncc(F)c(Nc3ccc(CNC(=O)C4CC4)cc3)n2)cc1 [III-41, N2-(4-aminosulfonyl)phenyl-N4-(4-cyclopropylcarbonylaminomethyl)phenyl-5-fluoro-2,4-pyrimidinediamine] |
| 536 | N#CCc1ccc(Nc2nc(Nc3ccc(S(N)(=O)=O)cc3)ncc2F)cc1 [III-3, N2-(4-Aminosulfonyl)phenyl-N4-(4-cyanomethyl)phenyl-5-fluoro-2,4-pyrimidinediamine] |

same assay, conditions: Ramos B-cell line stimulated with IL-4; CD23 expression by FACS; sodium salt; read-out: IC50, Example 41

| IC50 [nM] | SMILES |
| --- | --- |
| 6440 | CC(=O)NS(=O)(=O)c1cc(Nc2ncc(F)c(Nc3ccc(OCC#N)cc3)n2)ccc1C [Compound I-38, N2-(3-Acetylaminosulfonyl-4-methyl)phenyl-N4-(4-cyanomethyleneoxy)phenyl-5-fluoro-2,4-pyrimidinediamine sodium salt] |
